pIC50: −log10 of the molar value.
Test system: 475296-252-R-J1-PDC spheroid viability
Test: Anticancer human tumor 475296-252-R-J1-PDC patient-derived rectal carcinoma cell line growth inhibition [PI3K]
Conditions: spheroids with HUVEC and MSC; for pIC50: curve of first compound; for viability, T/C: stronger effect = lower value
Outline: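 Tumor cells were combined with HUVEC and MSCs into spheroids, then dosed with PI3K-inhibitor combinations over half-log ranges capped near clinical Cmax or 10 microM.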

[1] = second compound 0.00316 µM, first compound 0.0316 µM
[2] = second compound 0.00316 µM, first compound 0.1 µM
[3] = second compound 0.00316 µM, first compound 0.316 µM
[4] = second compound 0.00316 µM, first compound 1 µM
[5] = second compound 0.00316 µM, first compound 3.16 µM
[6] = second compound 0.00316 µM, first compound 10 µM
[7] = second compound 0.01 µM, first compound 0.0316 µM
[8] = second compound 0.01 µM, first compound 0.1 µM
[9] = second compound 0.01 µM, first compound 0.316 µM
[10] = second compound 0.01 µM, first compound 1 µM
[11] = second compound 0.01 µM, first compound 3.16 µM
[12] = second compound 0.01 µM, first compound 10 µM
[13] = second compound 0.0316 µM, first compound 0.0316 µM
[14] = second compound 0.0316 µM, first compound 0.1 µM
[15] = second compound 0.0316 µM, first compound 0.316 µM
[16] = second compound 0.0316 µM, first compound 1 µM
[17] = second compound 0.0316 µM, first compound 3.16 µM
[18] = second compound 0.0316 µM, first compound 10 µM
[19] = second compound 0.1 µM, first compound 0.0316 µM
[20] = second compound 0.1 µM, first compound 0.1 µM
[21] = second compound 0.1 µM, first compound 0.316 µM
[22] = second compound 0.1 µM, first compound 1 µM
[23] = second compound 0.1 µM, first compound 3.16 µM
[24] = second compound 0.1 µM, first compound 10 µM
[25] = second compound 0.316 µM, first compound 0.0316 µM
[26] = second compound 0.316 µM, first compound 0.1 µM
[27] = second compound 0.316 µM, first compound 0.316 µM
[28] = second compound 0.316 µM, first compound 1 µM
[29] = second compound 0.316 µM, first compound 3.16 µM
[30] = second compound 0.316 µM, first compound 10 µM
[31] = second compound 1 µM, first compound 0.0316 µM
[32] = second compound 1 µM, first compound 0.1 µM
[33] = second compound 1 µM, first compound 0.316 µM
[34] = second compound 1 µM, first compound 1 µM
[35] = second compound 1 µM, first compound 3.16 µM
[36] = second compound 1 µM, first compound 10 µM
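Further: spheroids exposed to agents for seven days before readout.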

## CC1(C)CCC(Nc2ncc(C(F)(F)F)c(-c3c[nH]c4c(P(C)(C)=O)c(C#N)ccc34)n2)CN1 (stereo unspecified) + CC(Nc1ccc2c(c1)OCCn1cc(N3C(=O)OCC3C(F)F)nc1-2)C(N)=O
Second compound 0.00316 µM
  pIC50: < 5.00
Second compound 0.01 µM
  pIC50: < 5.00
Second compound 0.0316 µM
  pIC50: < 5.00
Second compound 0.1 µM
  pIC50: < 5.00
Second compound 0.316 µM
  pIC50: < 5.00
Second compound 1 µM
  pIC50: < 5.00
[1]
  viability, T/C: 96.4%
[2]
  viability, T/C: 86.1%
[3]
  viability, T/C: 98.4%
[4]
  viability, T/C: 116%
[5]
  viability, T/C: 174%
[6]
  viability, T/C: 73.9%
[7]
  viability, T/C: 94.5%
[8]
  viability, T/C: 81.3%
[9]
  viability, T/C: 116%
[10]
  viability, T/C: 136%
[11]
  viability, T/C: 203%
[12]
  viability, T/C: 82.8%
[13]
  viability, T/C: 91.2%
[14]
  viability, T/C: 99.7%
[15]
  viability, T/C: 96.9%
[16]
  viability, T/C: 136%
[17]
  viability, T/C: 187%
[18]
  viability, T/C: 77.1%
[19]
  viability, T/C: 96.6%
[20]
  viability, T/C: 103%
[21]
  viability, T/C: 106%
[22]
  viability, T/C: 136%
[23]
  viability, T/C: 170%
[24]
  viability, T/C: 72.9%
[25]
  viability, T/C: 82.9%
[26]
  viability, T/C: 92.5%
[27]
  viability, T/C: 104%
[28]
  viability, T/C: 111%
[29]
  viability, T/C: 147%
[30]
  viability, T/C: 66.5%
[31]
  viability, T/C: 94.7%
[32]
  viability, T/C: 88.4%
[33]
  viability, T/C: 96.4%
[34]
  viability, T/C: 105%
[35]
  viability, T/C: 113%
[36]
  viability, T/C: 63.1%

## CC(C)NCC(C(=O)N1CCN(c2ncnc3c2C(C)CC3O)CC1)c1ccc(Cl)cc1 (stereo unspecified) + CC(Nc1ccc2c(c1)OCCn1cc(N3C(=O)OCC3C(F)F)nc1-2)C(N)=O
Second compound 0.00316 µM
  pIC50: < 5.00
Second compound 0.01 µM
  pIC50: < 5.00
Second compound 0.0316 µM
  pIC50: < 5.00
Second compound 0.1 µM
  pIC50: < 5.00
Second compound 0.316 µM
  pIC50: < 5.00
Second compound 1 µM
  pIC50: < 5.00
[1]
  viability, T/C: 85.7%
[2]
  viability, T/C: 86.5%
[3]
  viability, T/C: 95.3%
[4]
  viability, T/C: 75.7%
[5]
  viability, T/C: 67.6%
[6]
  viability, T/C: 59.3%
[7]
  viability, T/C: 82.7%
[8]
  viability, T/C: 78.5%
[9]
  viability, T/C: 88.3%
[10]
  viability, T/C: 67.6%
[11]
  viability, T/C: 65.3%
[12]
  viability, T/C: 67.5%
[13]
  viability, T/C: 92.7%
[14]
  viability, T/C: 94.3%
[15]
  viability, T/C: 91.4%
[16]
  viability, T/C: 95.4%
[17]
  viability, T/C: 63.5%
[18]
  viability, T/C: 62.4%
[19]
  viability, T/C: 84.2%
[20]
  viability, T/C: 86.4%
[21]
  viability, T/C: 90.5%
[22]
  viability, T/C: 92.5%
[23]
  viability, T/C: 78.4%
[24]
  viability, T/C: 57.8%
[25]
  viability, T/C: 84.9%
[26]
  viability, T/C: 80%
[27]
  viability, T/C: 84.9%
[28]
  viability, T/C: 82.6%
[29]
  viability, T/C: 87.4%
[30]
  viability, T/C: 66.2%
[31]
  viability, T/C: 93.5%
[32]
  viability, T/C: 86.2%
[33]
  viability, T/C: 83.4%
[34]
  viability, T/C: 77.8%
[35]
  viability, T/C: 77%
[36]
  viability, T/C: 67.8%

## CCCS(=O)(=O)Nc1ccc(F)c(C(=O)c2c[nH]c3ncc(-c4ccc(Cl)cc4)cc23)c1F + Cc1nc(NC(=O)N2CCCC2C(N)=O)sc1-c1ccnc(C(C)(C)C(F)(F)F)c1
Second compound 0.0316 µM
  pIC50: < 5.00
Second compound 0.1 µM
  pIC50: < 5.00
Second compound 0.316 µM
  pIC50: < 5.00
Second compound 1 µM
  pIC50: < 5.00
Second compound 3.16 µM
  pIC50: < 5.00
Second compound 10 µM
  pIC50: < 5.00
[13]
  viability, T/C: 88.8%
[14]
  viability, T/C: 95.5%
[15]
  viability, T/C: 92.2%
[16]
  viability, T/C: 91.5%
[17]
  viability, T/C: 80.5%
[18]
  viability, T/C: 94%
[19]
  viability, T/C: 106%
[20]
  viability, T/C: 94.6%
[21]
  viability, T/C: 88%
[22]
  viability, T/C: 81.2%
[23]
  viability, T/C: 98.7%
[24]
  viability, T/C: 100%
[25]
  viability, T/C: 85%
[26]
  viability, T/C: 94.8%
[27]
  viability, T/C: 98.2%
[28]
  viability, T/C: 92.6%
[29]
  viability, T/C: 91.1%
[30]
  viability, T/C: 96.3%
[31]
  viability, T/C: 83.1%
[32]
  viability, T/C: 97.3%
[33]
  viability, T/C: 88.2%
[34]
  viability, T/C: 89.8%
[35]
  viability, T/C: 89.3%
[36]
  viability, T/C: 82%
Second compound 3.16 µM, first compound 0.0316 µM
  viability, T/C: 83.6%
Second compound 3.16 µM, first compound 0.1 µM
  viability, T/C: 92.8%
Second compound 3.16 µM, first compound 0.316 µM
  viability, T/C: 87.6%
Second compound 3.16 µM, first compound 1 µM
  viability, T/C: 92%
Second compound 3.16 µM, first compound 3.16 µM
  viability, T/C: 89.9%
Second compound 3.16 µM, first compound 10 µM
  viability, T/C: 73%
Second compound 10 µM, first compound 0.0316 µM
  viability, T/C: 80.4%
Second compound 10 µM, first compound 0.1 µM
  viability, T/C: 82%
Second compound 10 µM, first compound 0.316 µM
  viability, T/C: 82.1%
Second compound 10 µM, first compound 1 µM
  viability, T/C: 80.4%
Second compound 10 µM, first compound 3.16 µM
  viability, T/C: 76.3%
Second compound 10 µM, first compound 10 µM
  viability, T/C: 66.1%

Reference: PubChem BioAssay AID1963980 (Molecular Pharmacology Branch, DTP, NCI, 2024)
